Experimental data published in patent US9630914B2, “Multitarget FAAH and COX inhibitors and therapeutical uses thereof” (FONDAZIONE ISTITUTO ITALIANO DI TECNOLOGIA, priority 2012, dated 2017).
Like-named read-outs stand apart in the source and are kept apart here.

Experiments:
[1] = tested on: carrageenan-induced inflammation and hyperalgesia; assay: Carrageenan test (paw edema and thermal hyperalgesia); type: in vivo, mice
Excerpt: (§1) Male CD1 mice, weighing 25-30 g, (Charles River, Calco, Italy) were used. Procedures were in accordance with the Ethical Guidelines of the International Association for the Study of Pain and were approved by Italian regulations on protection of animals used for experimental and other scientific purposes (D. M. 116192) as well as with European Economic Community regulations (O. J. of E. C. L 358/1 Dec. 18, 1986). Mice were housed in groups of 5 in ventilated cages containing autoclaved cellulose paper as nesting material, with free access to food and water. They were maintained under a 12 h light/dark cycle (lights on at 08:00 a.m.), at controlled temperature (21±1° C.) and relative humidity (55±10%). The animals are randomly divided in groups of 6 mice. Behavioral testing was performed between 9:00 a.m. and 5:00 p.m. Scientists running the experiments were not aware of the treatment protocol at the time of the test (blind procedure).
The pro-inflammatory agent λ-carrageenan (1% weight-vol^−1 in sterile water, 50 μL) was injected into the left hind paw of slightly restrained mice, and paw volume was measured with a plethysmometer (Ugo Basile, Comerio, Italy), while thermal hyperalgesia was assessed by the method of Hargreaves et al. (1988), measuring the latency to withdraw the hind paw from a focused beam of radiant heat (thermal intensity: infrared 3.0) in a plantar test apparatus (Ugo Basile, Comerio, Italy). Cutoff time was set at 30 s. Withdrawal latencies were measured on both ipsilateral and contralateral paws at various time points after drug administration.
Drug solutions were prepared immediately before use in saline containing 10% PEG-400 and 10% Tween 80 and orally administered in a volume of 2.5 mL-kg^−1 before intraplantar injection of carrageenan.
Results are expressed as the mean±S.E.M., or 95% confidence limits (95% CL). Efficacy data were compared using two-way analysis of variance (ANOVA) followed by Bonferroni's test for multiple comparisons. For gastric toxicity, the significance of differences between groups was determined by one-way ANOVA followed by a Bonferroni's test for multiple comparisons.

[2] = tested on: gastric mucosa; assay: Gastric lesions (gastric irritation, ulceration index); type: in vivo; settings: food-deprived mice
Excerpt: as §1
To study the gastric irritation the protocol of Chan et al. (1995) was followed. […] After 4 h, the mice were killed by CO2 asphyxiation. The stomachs were removed, opened, rinsed in PBS, and the stomach lining was photographed. Scoring was done by observers blinded to experimental conditions, as previously reported (Jain et al., 2002): red coloration=0.5; spot ulcers=1; hemorrhagic streaks=1.5. […]

[3] = biological target: ovine COX-1 (Ovis aries (Sheep), UniProt P05979); assay: In vitro COX assay (COX Inhibitor Screening Assay Kit), COX-1; type: biochemical; settings: 5 μM arachidonic acid
Experimental: COX activity was measured using a commercial kit (COX Inhibitor Screening Assay Kit—Cayman Chemical N. 560131) which includes both ovine COX-1 and human recombinant COX-2 enzymes. Inhibitors were pre-incubated with either ovine COX-1 or human COX-2 in order to screen isozyme-specific inhibition. Differently than described in the kit protocol, the reaction was carried out in the presence of 5 μM arachidonic acid while for the blank sample (no activity) the two enzymes were inactivated for 40 minutes at 100° C. It was then measured the amount of PGF2α produced by reduction with SnCl2 of COX-derived PGH2, via enzyme immunoassay (EIA) using a PG-specific antibody and competing with a PG-acetylcholinesterase conjugate.
Absorbance was measured at 412 nm with a Tecan Infinite M200 plate reader and data were processed according to manufacturer's instructions.
The median inhibitory concentrations (IC50) were determined by non-linear regression analysis of the Log [concentration]/response curves generated with mean replicate values using a four parameter Hill equation curve fitting with GraphPad Prism 5 (GraphPad Software Inc., CA-USA).

[4] = tested on: FAAH; settings: literature value; cited from earlier work
[5] = oral, 3, 10, 30 and 100 mg/kg, mouse

Sequence of ovine COX-1 (P05979 25-600): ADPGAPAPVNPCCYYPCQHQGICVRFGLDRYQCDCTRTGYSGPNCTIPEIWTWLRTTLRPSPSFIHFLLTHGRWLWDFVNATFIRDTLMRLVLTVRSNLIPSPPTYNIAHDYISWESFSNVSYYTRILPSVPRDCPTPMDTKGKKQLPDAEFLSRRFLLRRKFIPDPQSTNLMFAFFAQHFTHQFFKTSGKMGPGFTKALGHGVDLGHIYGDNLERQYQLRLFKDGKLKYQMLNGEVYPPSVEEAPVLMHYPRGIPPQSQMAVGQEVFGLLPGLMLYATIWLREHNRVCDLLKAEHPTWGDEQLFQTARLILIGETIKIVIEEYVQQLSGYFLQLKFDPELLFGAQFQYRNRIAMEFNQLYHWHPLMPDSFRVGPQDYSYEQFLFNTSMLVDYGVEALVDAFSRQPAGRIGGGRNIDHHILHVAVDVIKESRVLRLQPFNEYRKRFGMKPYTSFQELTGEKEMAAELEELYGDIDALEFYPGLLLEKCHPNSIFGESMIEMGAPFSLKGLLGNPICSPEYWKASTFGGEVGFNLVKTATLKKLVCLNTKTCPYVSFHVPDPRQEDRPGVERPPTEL

CC(C(=O)O)c1ccc(-c2ccccc2)c(F)c1 (stereo not shown) [Compound A, flurbiprofen, reference compound]
ED50 ([1]; oral, mouse carrageenan model, read-out: ED50 on edema (Δ volume paw)): 30 mg/kg | ED50 ([1]; oral, mouse carrageenan model, read-out: ED50 on thermal hyperalgesia (withdrawal latency)): 30 mg/kg | gastric irritation and gastric ulcers ([2]; oral 30 mg/kg): profound gastric irritation and appearance of gastric ulcers

CCCCCCNC(=O)Oc1cccc(-c2ccc(C(C)C(=O)O)cc2F)c1 (stereo not shown) [Example 12, 2-[3-fluoro-4-[3-(hexylcarbamoyloxy)phenyl]phenyl]propanoic acid]
IC50 [3]: 0.012 µM | ED50 ([1]; Mus musculus, read-out: ED50 on edema (Δ volume paw)): 10 mg/kg | ED50 ([1]; Mus musculus, read-out: ED50 on thermal hyperalgesia (withdrawal latency)): 10 mg/kg | effect on carrageenan-induced inflammation and hyperalgesia [1, 5]: dose-dependent and persistent suppression | potency at inhibiting the responses induced by carrageenan, compared with compound A [1, 5]: more potent than oral compound A | ulcerogenic effect ([2]; oral, up to 100 mg/kg): no ulcerogenic effect

Cc1cccnc1NC(=O)C(C)c1ccc(CC(C)C)cc1 (stereo not shown) [Ibu-am5]
IC50 [4]: 2.7 µM
